Results: US20180251434A1, “ANTIBACTERIAL HETEROCYCLIC DERIVATIVES” (priority 2015, published 2018)
Values after ≈ are worked out from the molar mass of the structure shown. Read-outs that look alike come from different tables or passages of the source.

Experiments:
Type in all cases: cell-based
[1] = test system: E. coli ATCC25922; assay: Bacterial growth minimal inhibitory concentration (broth microdilution, CLSI M7-A7); details: quinolone-sensitive strain; for MIC: Escherichia coli, ATCC25922, cation-adjusted Mueller Hinton Broth; for MIC for E. coli ATCC25922: cation-adjusted Mueller Hinton Broth
Experimental: (§1) Minimal Inhibitory Concentrations (MICs; mg/L) were determined in cation-adjusted MuellerHinton Broth by a microdilution method following the description given in “Methods for Dilution Antimicrobial Susceptibility Tests for Bacteria that grow Aerobically”, Approved standard, 7th ed., Clinical and Laboratory Standards Institute (CLSI) Document M7-A7, Wayne, Pa., USA (2006).
(§2) All Example compounds were tested against several Gram-positive and Gram-negative bacteria. […] K pneumoniae A-651 is a multiply-resistant strain (in particular quinolone-resistant), while E. coli ATCC25922 and P. aeruginosa ATCC27853 are quinolone-sensitive strains.

[2] = test system: K. Pneumoniae A-651; assay: as above; details: cation-adjusted Mueller Hinton Broth, multiply-resistant (quinolone-resistant) strain; for MIC: Klebsiella pneumoniae
Experimental: as §1, §2

[3] = test system: P. aeruginosa ATCC27853; assay: as above; details: quinolone-sensitive strain; for MIC: Pseudomonas aeruginosa, ATCC27853, cation-adjusted Mueller Hinton Broth; for MIC for P. aeruginosa ATCC27853: cation-adjusted Mueller Hinton Broth
Experimental: as §1, §2

[4] = test system: wild-type E. coli A-1261; assay: MIC with or without alkaline phosphatase or esterase (prodrug activation); details: Escherichia coli
Experimental: Minimal Inhibitory Concentrations (MICs; mg/L) were determined in cation-adjusted MuellerHinton Broth by a microdilution method following the description given in “Methods for Dilution Antimicrobial Susceptibility Tests for Bacteria that grow Aerobically”, Approved standard, 7th ed., Clinical and Laboratory Standards Institute (CLSI) Document M7-A7, Wayne, Pa., USA (2006). The compounds of Examples 5 and 12 were tested against wild-type E. coli A-1261 in the absence of alkaline phosphatase or esterase, in the presence of an alkaline phosphatase, and in the presence of an esterase. The corresponding antibacterial test results are given in Table 2 hereafter (MICs in mg/L).

[5] = alkaline phosphatase 2 i.U./mL, read-out: MIC for E. coli A-1261 In the presence of an alkaline phosphatase (2 i.U./mL)
[6] = esterase 10 i.U./mL, read-out: MIC for E. coli A-1261 In the presence of an esterase (10 i.U./mL)
[7] = no alkaline phosphatase or esterase, read-out: MIC for E. coli A-1261 In the absence of alkaline phosphatase or esterase

MIC [1] [µg/mL] | MIC [2] [µg/mL] | MIC [3] [µg/mL] | MIC [4, 5] [µg/mL] | MIC [4, 6] [µg/mL] | MIC [4, 7] [µg/mL] | SMILES | MIC for E. coli ATCC25922 [1] [µg/mL] | MIC for K. Pneumoniae A-651 [2] [µg/mL] | MIC for P. aeruginosa ATCC27853 [3] [µg/mL]
2 (≈ 4.42 µM) | 1 (≈ 2.21 µM) | > 8 | – | – | – | COc1ccc(-c2ccc3c(c2)oc(=O)n3CCC(C)(C(=O)NO)S(C)(=O)=O)c(F)c1 (racemic) [RE1, (2RS)-4-(6-(2-fluoro-4-methoxyphenyl)-2-oxobenzo[d]oxazol-3(2H)-yl)-N-hydroxy-2-methyl-2-(methylsulfonyl)butanamide] | – | – | –
4 (≈ 8.92 µM) | 8 (≈ 17.8 µM) | > 8 | – | – | – | CC(CCn1c(=O)oc2cc(C#CC#CC3(O)COC3)ccc21)(C(=O)NO)S(C)(=O)=O (racemic) [RE2, (2RS)—N-hydroxy-4-(6-((3-hydroxyoxetan-3-yl)buta-1,3-diyn-1-yl)-2-oxobenzo[d]oxazol-3(2H)-yl)-2-methyl-2-(methylsulfonyl)butanamide] | – | – | –
– | – | – | – | – | – | C[C@@](CCn1c(=O)oc2cc(C#Cc3ccc(CO)cc3)ccc21)(C(=O)NO)S(C)(=O)=O [Example 1] | 0.25 | 0.5 | 4
– | – | – | – | – | – | C[C@@](CCn1c(=O)oc2cc(C#CC#CC3(CO)CC3)ccc21)(C(=O)NO)S(C)(=O)=O [Example 2, (2R)—N-hydroxy-4-(6-((1-(hydroxymethyl)cyclopropyl)buta4,3-diyn-1-yl)-2-oxobenzo[d]oxazol-3(2H)-yl)-2-methyl-2-(methylsulfonyl)butanamide] | 0.25 | 1 | 1
– | – | – | – | – | – | C[C@@](CCn1c(=O)oc2cc(C#Cc3ccc(CN4CCOCC4)cc3)ccc21)(C(=O)NO)S(C)(=O)=O [Example 3] | 2 | 2 | >8
0.25 (≈ 0.561 µM) | 0.25 (≈ 0.561 µM) | 1 (≈ 2.24 µM) | – | – | – | CNC1(C#CC#Cc2ccc3c(c2)oc(=O)n3CC[C@](C)(C(=O)NO)S(C)(=O)=O)CC1 [Example 4, (2R)—N-hydroxy-2-methyl-4-(6-((1-(methylamino)cyclopropyl)buta-1,3-diyn-1-yl)-2-oxobenzo[d]oxazol-3(2H)-yl)-2-(methylsulfonyl)butanamide] | – | – | –
0.063 (≈ 0.141 µM) | 0.125 (≈ 0.28 µM) | 0.5 (≈ 1.12 µM) | 0.063 | 0.063 | 0.063 (≈ 0.141 µM) | C[C@@](CCn1c(=O)oc2cc(C#CC#C[C@H]3C[C@@H]3CO)ccc21)(C(=O)NO)S(C)(=O)=O [Example 5, (2R)—N-hydroxy-4-(6-(((1S,2S)-2-(hydroxymethyl)cyclopropyl)buta-1,3-diyn-1-yl)-2-oxobenzo[d]oxazol-3 (2H)-yl)-2-methyl-2-(methylsulfonyl)butanamide] | – | – | –
0.125 (≈ 0.269 µM) | 0.25 (≈ 0.538 µM) | 0.5 (≈ 1.08 µM) | – | – | – | C[C@@](CCn1c(=O)oc2cc(C#CC#C[C@H]3C[C@]3(F)CO)ccc21)(C(=O)NO)S(C)(=O)=O [Example 6, (2R)-4-(6-(((1R,2R)-2-fluoro-2-(hydroxymethyl)cyclopropyl)buta-1,3-diyn-1-yl)-2-oxobenzo[d]oxazol-3(2H)-yl)-N-hydroxy-2-methyl-2-(methylsulfonyl)butanamide] | – | – | –
0.5 (≈ 0.989 µM) | 1 (≈ 1.98 µM) | 1 (≈ 1.98 µM) | – | – | – | C[C@@](CCn1c(=O)oc2cc(C#CC#CCOC(=O)N3CC(O)C3)ccc21)(C(=O)NO)S(C)(=O)=O [Example 7, (3R)-5-(3-(4-(hydroxyamino)-3-methyl-3-(methylsulfonyl)-4-oxobutyl)-2-oxo-2,3-dihydrobenzo[d]oxazol-6-yl)penta-2,4-diyn-1-yl 3-hydroxyazetidine-1-carboxylate] | – | – | –
0.125 (≈ 0.29 µM) | 0.25 (≈ 0.579 µM) | 1 (≈ 2.32 µM) | – | – | – | C[C@@](CCn1c(=O)oc2cc(C#CC#CC3(N)CC3)ccc21)(C(=O)NO)S(C)(=O)=O [Example 8, (2R)-4-(6-((1-aminocyclopropyl)buta-1,3-diyn-1-yl)-2-oxobenzo[d]oxazol-3(2H)-yl)-N-hydroxy-2-methyl-2-(methylsulfonyl)butanamide] | – | – | –
1 (≈ 2.24 µM) | 0.5 (≈ 1.12 µM) | 1 (≈ 2.24 µM) | – | – | – | CN1CC(C#CC#Cc2ccc3c(c2)oc(=O)n3CC[C@](C)(C(=O)NO)S(C)(=O)=O)C1 [Example 9, (2R)—N-hydroxy-2-methyl-4-(6-((1-methylazetidin-3-yl)buta-1,3-diyn-1-yl)-2-oxobenzo[d]oxazol-3(2H)-yl)-2-(methylsulfonyl)butanamide] | – | – | –
0.5 (≈ 1.08 µM) | 1 (≈ 2.17 µM) | 2 (≈ 4.33 µM) | – | – | – | CN1CC(C#CC#Cc2ccc3c(c2)sc(=O)n3CC[C@](C)(C(=O)NO)S(C)(=O)=O)C1 [Example 10, (2R)—N-hydroxy-2-methyl-4-(6-((1-methylazetidin-3-yl)buta-1,3-diyn-1-yl)-2-oxobenzo[d]thiazol-3(2H)-yl)-2-(methylsulfonyl)butanamide] | – | – | –
0.063 (≈ 0.131 µM) | 0.25 (≈ 0.52 µM) | 1 (≈ 2.08 µM) | – | – | – | C[C@@](CCn1c(=O)sc2cc(C#CC#C[C@H]3C[C@]3(F)CO)ccc21)(C(=O)NO)S(C)(=O)=O [Example 11, (2R)-4-(6-(((1R,2R)-2-fluoro-2-(hydroxymethyl)cyclopropyl)buta-1,3-diyn-1-yl)-2-oxobenzo[d]thiazol-3(2H)-yl)-N-hydroxy-2-methyl-2-(methylsulfonyl)butanamide] | – | – | –
– | – | – | 0.125 | > 8 | > 8 | C[C@@](CCn1c(=O)oc2cc(C#CC#C[C@H]3C[C@@H]3COP(=O)(O)O)ccc21)(C(=O)NO)S(C)(=O)=O [Example 12, ((1S,2S)-2-((3-((3R)-4-(hydroxyamino)-3-methyl-3-(methylsulfonyl)-4-oxobutyl)-2-oxo-2,3-dihydrobenzo[d]oxazol-6-yl)buta-1,3-diyn-1-yl)cyclopropyl)methyl dihydrogen phosphate] | – | – | –
– | – | – | – | – | – | C[C@@](CCn1c(=O)sc2cc(C#Cc3ccc(CO)cc3)ccc21)(C(=O)NO)S(C)(=O)=O [Example 13] | 0.125 | 0.5 | 8
